We go through 4 molecules from patent US8586596B2, “Compounds as cannabinoid receptor ligands” (AbbVie Inc., priority 2010, dated 2013).

The target of one assay is T1, human CB2 receptors (Homo sapiens, UniProt P34972).
T1 construct: expressed in transfected cells; membrane preparation
Briefly: CB2 radioligand binding assay ([3H]CP 55,940 competition), human.

The next assay concerns the target T2, rat CB2 receptors (Rattus norvegicus, UniProt Q9QZN9).
T2 construct: expressed in transfected cells; membrane preparation
T2 sequence (Q9QZN9 1-360): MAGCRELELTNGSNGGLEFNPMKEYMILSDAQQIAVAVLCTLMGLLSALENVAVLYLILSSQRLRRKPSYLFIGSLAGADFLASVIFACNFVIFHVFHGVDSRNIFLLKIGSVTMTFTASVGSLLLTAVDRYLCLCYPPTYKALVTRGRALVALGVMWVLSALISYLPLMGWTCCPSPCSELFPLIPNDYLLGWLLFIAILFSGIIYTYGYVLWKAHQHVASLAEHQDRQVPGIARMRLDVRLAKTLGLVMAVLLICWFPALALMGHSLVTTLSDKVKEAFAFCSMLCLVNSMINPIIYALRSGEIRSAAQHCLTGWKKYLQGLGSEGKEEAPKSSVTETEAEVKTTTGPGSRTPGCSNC
Kind of assay: CB2 radioligand binding assay ([3H]CP 55,940 competition), rat.

Structures are written as SMILES. Like-named read-outs stand apart in the source and are kept apart here.

T1 sequence (P34972 whole entry): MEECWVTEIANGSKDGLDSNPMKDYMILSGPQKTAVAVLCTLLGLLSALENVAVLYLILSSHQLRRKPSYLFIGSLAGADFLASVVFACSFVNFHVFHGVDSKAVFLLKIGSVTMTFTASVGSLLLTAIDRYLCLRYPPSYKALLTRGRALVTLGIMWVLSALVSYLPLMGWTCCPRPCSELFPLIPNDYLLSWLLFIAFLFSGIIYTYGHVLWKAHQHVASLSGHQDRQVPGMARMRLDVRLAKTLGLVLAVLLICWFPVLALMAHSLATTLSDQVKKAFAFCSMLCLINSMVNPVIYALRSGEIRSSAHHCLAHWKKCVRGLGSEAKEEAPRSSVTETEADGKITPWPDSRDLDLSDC

The Ki is the equilibrium dissociation constant of an inhibitor or competing ligand from its target. For `CCCCn1/c(=N/C(=O)c2cc(C(F)(F)F)ccc2OC[C@H](C)O)sc2ncnc(O)c21` [Example 1, N-[(2Z)-1-butyl-7-hydroxy[1,3]thiazolo[5,4-d]pyrimidin-2(1H)-ylidene]-2-{[(2S)-2-hydroxypropyl]oxy}-5-(trifluoromethyl)benzamide], the Ki on human CB2 receptors (membranes of HEK293 cells stably expressing human CB2, 0.5 nM [3H]CP 55,940, read-out: human CB2 binding (Ki)) is 233 nM; on rat CB2 receptors (membranes of HEK293 cells stably expressing rat CB2, 0.5 nM [3H]CP 55,940, read-out: rat CB2 binding (Ki)) it was 157 nM.
On to `CCCCn1/c(=N/C(=O)c2cc(C(F)(F)F)ccc2OC[C@H](C)O)sc2nccnc21` [Example 2, N-[(2Z)-3-butyl[1,3]thiazolo[4,5-b]pyrazin-2(3H)-ylidene]-2-{[(2S)-2-hydroxypropyl]oxy}-5-(trifluoromethyl)benzamide], for which the figures for the Ki on human CB2 receptors and on rat CB2 receptors were 2 nM and 4.1 nM, respectively.
With `CCCCn1/c(=N/C(=O)c2cc(C(F)(F)F)ccc2OC[C@H](C)O)sc2ncncc21` [Example 3, N-[(2Z)-1-butyl[1,3]thiazolo[5,4-d]pyrimidin-2(1H)-ylidene]-2-{[(2S)-2-hydroxypropyl]oxy}-5-(trifluoromethyl)benzamide], the Ki on human CB2 receptors turned out to be 10 nM; on rat CB2 receptors, 4 nM.
The matching figures for `CCCCn1/c(=N/C(=O)c2cc(C(F)(F)F)ccc2OC[C@H](C)O)sc2cnn(C)c(=O)c21` [Example 4, N-[(2Z)-3-butyl-5-methyl-4-oxo-4,5-dihydro[1,3]thiazolo[4,5-d]pyridazin-2(3H)-ylidene]-2-{[(2S)-2-hydroxypropyl]oxy}-5-(trifluoromethyl)benzamide]: 36 nM and 5 nM.
